# Results: patent US11384076B2, “Synthesis, pharmacology and use of new and selective FMS-like tyrosine kinase 3 (FLT3) FLT3 inhibitors” (UNIVERSITÄT REGENSBURG, priority 2017, dated 2022)
# Legend:
# [1] = system: K562 cells; assay: Cell cycle distribution / subG1 fraction, PI staining, flow cytometry; format: cell-based, human; details: K562, 2, 5, 10 nM, 48 h
# Experimental: (§1) FIG. 5: Diverse human cell lines or cells were treated with different concentrations of Marbotinib (2 nM, 5 nM or 10 nM) or 5 μM STS for 48 h. Cells were harvested and stained with PI; cell cycle distribution were analyzed by flow cytometry. Cell cycle distribution and changes of subG1 fraction are illustrated. A) K562 cell line; B) NB4 cell line; C) PBMCs; n=2
# (§2) After incubation, cells were harvested on ice and fixed in 80% ethanol at −20° C. for at least 1 h. Next, the cells were incubated with RNase for 30 min at room temperature, thereafter stained with propidium iodide (PI), and measured immediately with a flow cytometer. PI intercalates into DNA. In the different phases of the cell cycle, cells incorporate various amounts of PI. This allows the quantification of the cell cycle phases. The subG1 population represents the fraction of apoptotic/necrotic cells, which contains only fragmented DNA (DNA content <2N).
# (§3) Additional experiments were performed to ensure the specificity of Marbotinib. Other human blood cell lines that carry no FLT3-ITD were stimulated with Marbotinib and analyzed. K562 cells derived from a patient with chronic myeloid leukemia. These cells are precursors from erythrocytes and carry a mutation of the tyrosine kinase BCR-ABL. The NB4 cells derived from a patient with acute promyelocytic leukemia and carry a mutation in the PML-RARA fusion protein (Noack, Mahendrarajah et al. 2016). Peripheral blood mononuclear cells (PBMCs) were freshly isolated from whole blood samples and used immediately for experiments. K562, NB4 and PBMCs were stimulated with different concentrations of Marbotinib for 48 h and cell cycle distribution was analyzed by flow cytometry. Marbotinib selectively leads to an increase of subG1 fraction only in FLT3-ITD positive cell lines (FIG. 3 and FIG. 4). Cell lines or cells that carry no FLT3-ITD are not affected by Marbotinib (FIG. 5).
# [2] = system: NB4 cells; assay: as above; format: cell-based, human; details: NB4, 2, 5, 10 nM, 48 h
# Experimental: as §1, §2, §3
# [3] = system: PBMCs; assay: as above; format: cell-based, human; details: PBMCs, 2, 5, 10 nM, 48 h
# Experimental: as §1, §2, §3
# [4] = system: MV4-11 cells; assay: AnnexinV FITC/PI apoptosis staining, flow cytometry; format: cell-based, human; details: MV4-11, 2, 5, 10 nM, 24 h
# Experimental: (§4) FIG. 6: […] Illustrated are the different populations of living cells, early apoptosis and late apoptosis/necrosis. To elucidate the apoptotic effects the population of cells in early apoptosis and late apoptosis/necrosis is represented in a separate diagram. A) MV4-11 cell line; B) PBMCs; n=1 To analyze apoptosis cells were treated as indicated and harvested on ice. Thereafter cells were stained with Annexin V FITC for 15 min on ice in the dark. After incubation time cells were stained with PI and measured immediately on flow cytometer. An Annexin V FITC and PI single stained sample was used for compensation and an unstained control sample was used to exclude autofluorescence. […] The subG1 fraction is only a hint for apoptosis therefore we stained MV4-11 cells and PBMCs for AnnexinV FITC/PI. This staining allows a differentiation between early apoptosis and late apoptosis. […] Treating FLT3-ITD positive cells with only 5 nM Marbotinib leads to a strong induction of apoptosis without affecting other cells or cell lines tested here.
# [5] = system: PBMCs; assay: as above; format: cell-based, human; details: PBMCs, 2, 5, 10 nM, 24 h
# Experimental: as §4
# [6] = system: Ba/F3 ITD D835Y mutant; assay: FLT3 signaling in Ba/F3 mutants, Western blot; format: cell-based, murine; details: 5 nM, 2 h
# [7] = system: MV4-11 cells; assay: Vitality assay, DAPI staining, flow cytometry; format: cell-based, human; details: 1, 5, 10, 100 nM, 48 h; especially at 1 nM, 5 nM and 10 nM
# Experimental: FIG. 14: Results of vitality assay in which MV4-11 cells were exposed to FLT3-inhibitors Marbotinib, Marbotinib Carbamate and ACC220, at different concentrations, and cell viability staining was performed.
# MV4-11 cells were treated with FLT3-inhibitors at different concentrations (1 nM, 5 nM, 10 nM, 100 nM) for 48 h. Viability staining was performed using life cell staining with DAPI. Samples were analysed using flow cytometry via FACS Canto; N=3.
# [8] = system: FLT3-ITD in MV4-11 cells; assay: Dephosphorylation of FLT3-ITD and downstream targets over time, Western blot; format: cell-based, human; details: 5 nM; 2 h, 6 h, 16 h, 24 h
# Source text: Whole cell lysates were used for SDS-Page and Western blot. The blots show dephosporylation of FLT3-ITD and some of its downstream targets, cell cycle regulators, and DNA damage regulators after treatment with FLT3-inhibitors over time. GAPDH was used as loading control. Control is indicated as CTRL. Marbotinib is indicated as FLT3i3 and Marbotinib-Carbamat is indicated as FLT3i540.
# [9] = system: Ba/F3 ITD N676K mutant; assay: FLT3 signaling in Ba/F3 mutants, Western blot; details: 5 nM, 2 h
# [10] = system: FLT3-ITD in MOLM-13 cells; assay: FLT3-ITD signaling, Western blot of cell lysates; details: MOLM-13, 5 nM
smiles,measurement,setting,value
"CC(C)(C)c1cc(NC(=O)Nc2ccc3oc(C(=O)c4cc5cc(O)ccc5[nH]4)cc3c2)no1 [Marbotinib, 1-(5-(tert-butyl)isoxazol-3-yl)-3-(2-(5-hydroxy-1H-indole-2-carbonyl)benzofuran-5-yl)urea]",cell cycle distribution / subG1 fraction,[1],not affected
same,cell cycle distribution / subG1 fraction,[2],not affected
same,cell cycle distribution / subG1 fraction,[3],not affected
same,apoptosis (AnnexinV FITC/PI),[4],clear induction of apoptosis
same,apoptosis (AnnexinV FITC/PI),[5],no changes in basal apoptosis
same,signal of p-FLT3 and p-STAT5,[6],strong reduction
same,"cell viability, efficacy compared with AC220",[7],more effective than compound AC220
same,block of FLT3-ITD and its associated signaling cascades,[8],effectively block
same,signal of p-FLT3,[9],strong reduction
same,signal of p-STAT5,[9],strong reduction
same,p-STAT5,[10],clear reduction
same,p-FLT3-ITD,[10]; 1 h,clearly reduces
